Several values for one entry are separate records, joined by “and”; a condition that tells them apart may be missing. Equal values may be shown once.
Key:
[1] = high fat diet mice treated with metformin and antibody (Example 4); format: in vivo, mouse; settings: monotherapy, 45% high fat diet; FIG. 12A
Procedure: Male C57/BL6 mice were fed a 60% high fat diet beginning at six weeks of age. At nineteen weeks of age (day 0), the mice were switched to a 45% high fat diet for 63 days. […] These mice were further divided into groups that received either 50 mg/kg of metformin or no metformin (Table 22a).
Body weight and food intake were monitored three times per week throughout the study. On days 7, 35, 49, and 63, body composition was determined by qNMR, and glucose, ketones, and insulin were measured. At the end of the study on day 63, body composition was determined by qNMR; glucose, ketones, and insulin were measured, gastrocnemius muscle, whole liver, epididymal, and subcutaneous adipose tissue was collected and weighed.
Male C57/BL6 mice (n=8/group) were fed a 60% HFD until week 18, at which time they are switched to a 45% HFD for 7 days. At day 7, animals in group 3-6 were treated with 50 mg/kg/day metformin, given orally throughout the remainder of the study.
Body weight was measured three times per week; lean mass and fat mass were measured by qNMR on days 7, 35, 49, 63, and 77; serum glucose was also measured on days 7, 35, 49, 63, and 77; serum insulin was measured on days 49, 63, and 77. A glucose tolerance test (GTT) and an insulin tolerance test (ITT) was administered between day 56 and day 63.

[2] = type 2 diabetics, meta-analysis; cited from earlier work
[3] = patients with SMA, Phase 2 (TOPAZ; NCT03921528); cited from earlier work
[4] = biological target: latent myostatin (Homo sapiens, UniProt O14793); settings: in vivo; cited from earlier work
[5] = test system: follicle stimulating hormone (FSH); settings: women; cited from earlier work
[6] = obese patients with type 2 diabetes; cited from earlier work
[7] = Ab109 with 0.01 or 0.04 mg/kg semaglutide in DIO mice (Example 9); format: in vivo, mouse; settings: for loss in perigonadal fat pad weight: FIG. 22A; for loss in inguinal fat pads: FIG. 22B; for loss in quadriceps weight: FIG. 21A
Procedure: Male C57/BL6 male mice (n=8/group) were placed on a 60% high fat diet at […] of age and maintained on the 60% high fat diet until 21 weeks of age (Groups 1-12), at which time the study began (day −7). On day −7, animals in groups 1-12 were switched to a 45% high fat diet and maintained on the 45% high fat diet until the animals were terminated. […] Body weight was measured three times per week and qNMR measurements of lean mass and fat mass were obtained pre-dose on day 0 and on days 7, 14 and 21. Fasting glucose was measured on day 18 after a 4 hour fast.
Animals in groups 3-12 were dosed with semaglutide daily for 3 weeks, then terminated. Animals in groups 1, 3, and 4 were treated with IgG control antibody, and those in groups 2, 5-12 were treated with myostatin activation inhibiting antibody treatment, for 3 weeks.
At termination, left gastrocnemius and quadriceps muscles were removed and frozen; the liver was weighed, one lobe was frozen; epididymal (perigonadal) adipose tissue was removed and weighed; inguinal (subcutaneous) adipose tissue was removed and weighed; and a terminal serum bleed was obtained.

[8] = Wilding et al. 2022; cited from earlier work
[9] = test system: leptin; assay: circulating leptin, U-PLEX Metabolic Hormones Combo 1 (Example 6); format: in vivo, mouse; settings: FIG. 14K
Procedure: Circulating leptin was measured using the U-PLEX Metabolic Hormones Combo 1 (mouse) according to manufacturer's instructions (Meso Scale Diagnostics, #K15306K-2). As expected, circulating leptin was higher in animals fed the high fat diet than animals fed a standard chow.

[10] = semaglutide plus Ab109 in DIO mice incl. semaglutide withdrawal (Example 6); format: in vivo, mouse
Procedure: Male C57/BL6 male mice (n=8/group) were either fed regular mouse chow (Group 1) or placed on a 60% high fat diet at six weeks of age and maintained on the 60% high fat diet until 21 weeks of age (Groups 2-8), at which time the study began (day 0). On day 0, animals in groups 2-8 were switched to a 45% high fat diet and maintained on the 45% high fat diet until the animals were terminated. […] Body weight was measured three times per week and qNMR measurements of lean mass and fat mass were obtained on the days set forth.
Animals in groups 3 and 4 were dosed with semaglutide weekly for 14 days, then terminated. Animals in groups 5 and 6 (weight regain groups), were treated with semaglutide for 35 days, then the semaglutide treatment was ended while the myostatin activation inhibiting antibody treatment continued until the animals were terminated on day 63. The animals in Groups 7 and 8 were treated with semaglutide for 63 days, i.e., they remained on semaglutide until the study terminated on day 63.
At termination, left and right gastrocnemius muscles were removed and frozen; the liver was weighed, one lobe was fixed, and the remainder was frozen; epididymal adipose tissue was removed and weighed; subcutaneous adipose tissue was removed and weighed; and a terminal serum bleed was obtained.

Compound: CN(C)C(=N)N=C(N)N [metformin, reference compound]
- fat mass gain [1]: Neither metformin alone nor Ab109 alone showed this effect
- effect on weight loss [2]: no effect on weight loss

Compound: apitegromab: selective myostatin inhibitor antibody that targets pro/latent myostatin and inhibits its activation
- efficacy and safety [3]: shown efficacy and safety
- circulating latent myostatin in treated subjects [4]: elevated levels of circulating latent myostatin

Compound: bimagrumab: an anti-ActRIIB antibody
- follicle stimulating hormone (FSH) [5]: significantly reduce follicle stimulating hormone (FSH)
- total body fat mass and lean mass [6]: reduce total body fat mass and increase lean mass

Compound: semaglutide [reference compound]
- loss in lean mass ([7]; 0.01 mg/kg semaglutide, FIG. 20B): 4.7%
- loss of lean mass ([7]; 0.04 mg/kg semaglutide and hIgG, 3 weeks, FIG. 20A): about 9.5%
- body weight ([7]; 45% high fat diet, semaglutide 0.01 or 0.04 mg/kg daily, 3 weeks, FIGS. 18A-B): lost weight
- loss in perigonadal fat pad weight ([7]; semaglutide 0.01 mg/kg): −19.1%
- loss in inguinal fat pads ([7]; semaglutide 0.01 mg/kg): −21.4%
- fat mass loss ([7]; semaglutide 0.04 mg/kg alone or with Ab109, FIG. 19A, 19C): induced fat mass loss
- loss in perigonadal fat pad weight ([7]; semaglutide 0.04 mg/kg): −45.5%
- loss in inguinal fat pads ([7]; semaglutide 0.04 mg/kg): −47.4%
- loss in gastrocnemius muscle weight ([7]; semaglutide 0.01 and 0.04 mg/kg, dose of each value not stated, FIG. 21B): −16.9% and −20.3%
- loss in quadriceps weight ([7]; semaglutide high dose (0.04 mg/kg)): −7.6%
- loss in quadriceps weight ([7]; semaglutide low dose (0.01 mg/kg)): −4.8%
- regain of prior weight loss one year after discontinuing treatment [8]: regained two-thirds of their prior weight loss
- circulating leptin [9]: lowered circulating leptin
- body weight ([10]; 45% high fat diet, semaglutide 0.04 mg/kg with hIgG or Ab109, incl. regain after withdrawal, FIG. 14A): lost weight
- loss of lean mass while on semaglutide ([10]; semaglutide and hIgG): about 4%
- net loss of lean mass at the end of the study ([10]; semaglutide and hIgG, after semaglutide was stopped): 2.5%
- fat mass ([10]; semaglutide, and regain after withdrawal with Ab109 or control IgG, FIG. 14D): induced fat mass loss

— patent US20260209325A1, “SELECTIVE AND POTENT INHIBITORY ANTIBODIES OF MYOSTATIN ACTIVATION” (SCHOLAR ROCK, INC., priority 2022, published 2026)
